The source of these data is patent publication US4129737A, “Process for the preparation of an 8-alkyl-5-oxo-5,8-dihydro-pyrido(2,3-d)pyrimidine-6-carboxylic acid” (priority 1972, dated 1978).

Converted amounts (≈) assume the structure as drawn. Read-outs that look alike come from different tables or passages of the source.

Common to all, as to format: cell-based
For one experiment, the system named is Staphylococcus 209 P. In words: Minimum inhibitory concentration by agar dilution, Staphylococcus 209 P. As to the method: (§1) (a) Trypticase soya medium (T.S.A.), which is very suitable for culturing the majority of microorganisms; it has the following composition:
(§2) (b) Ordinarily nutrient agar (N.A.), which is less rich in nutrients, corresponds to the following formulation: […]
(§3) Table I gives the minimum inhibitory concentrations (expressed in μg/cm^3) for the various microorganisms tested on each medium.
(§4) The products were tested on three Gram positive microorganisms (1 to 3) […] and on 10 Gram negative microorganisms (4 to 13).
(§5) Table (II) gives the minimum inhibitory concentrations of the compounds of Examples XII to XVI, determined on the agar medium, N.A., and expressed in μg/cm^3.
In general terms: Agar dilution tests growth on a series of plates holding different concentrations.

A further experiment concerns Streptococcus. The experiment in a line: Minimum inhibitory concentration by agar dilution, Streptococcus Group A. As to the method:
as §1, §2, §3, §4, §5

The next experiment relates to B. subtilis. In words: Minimum inhibitory concentration by agar dilution, B. subtilis. The conditions noted are these: Bacillus subtilis. Here is the method:
as §1, §2, §3, §4, §5

The test system of another experiment is Bord. bronchiseptica. The experiment in a line: Minimum inhibitory concentration by agar dilution, Bord. bronchiseptica. The conditions noted are these: Bordetella bronchiseptica. Here is the method:
as §1, §2, §3, §4, §5

The next experiment concerns B. pyocyaneus A22. The experiment in a line: Minimum inhibitory concentration by agar dilution, B. pyocyaneus A22. The conditions noted are these: Pseudomonas aeruginosa. Here is the method: as §1, §2, §3, §4, §5
Another experiment has as its system Esch. Coli 95. The experiment in a line: Minimum inhibitory concentration by agar dilution, Esch. Coli 95. The conditions noted are these: Escherichia coli. Here is the method: as §1, §2, §3, §4, §5
A further experiment has as its system Klebs. pneumoniae. The experiment in a line: Minimum inhibitory concentration by agar dilution, Klebs. pneumoniae. The conditions noted are these: Klebsiella pneumoniae. Here is the method: as §1, §2, §3, §4, §5
The next experiment relates to Salm. typhi. The experiment in a line: Minimum inhibitory concentration by agar dilution, Salm. typhi. The conditions noted are these: Salmonella enterica, 18 h. Here is the method: as §1, §2, §3, §4, §5
The subject of another experiment is Sh. sonnei. In words: Minimum inhibitory concentration by agar dilution, Sh. sonnei. The conditions noted are these: Shigella sonnei. As to the method:
as §1, §2, §3, §4, §5

Another experiment has as its system Pr. vulgaris. In words: Minimum inhibitory concentration by agar dilution, Pr. vulgaris. The conditions noted are these: Proteus vulgaris. Here is the method: as §1, §2, §3, §4, §5
Another experiment has as its system Pr. mirabilis. In words: Minimum inhibitory concentration by agar dilution, Pr. mirabilis. The conditions noted are these: Proteus mirabilis. As to the method: as §1, §2, §3, §4, §5
The test system of the next experiment is Pr. morganii. In words: Minimum inhibitory concentration by agar dilution, Pr. morganii. The conditions noted are these: Morganella morganii. As to the method:
as §1, §2, §3, §4, §5

The subject of the next experiment is B. pyocyaneus TUR. The experiment in a line: Minimum inhibitory concentration by agar dilution, B. pyocyaneus TUR. The conditions noted are these: Pseudomonas aeruginosa, 37° C., 18 hours. As to the method:
as §1, §2, §3, §4

[1] abbreviates: 18 h, agar medium, N.A., Table II (Staphylococcus 20 P [sic]), read-out: minimum inhibitory concentration.
Where [2] appears, read: 18 h, agar medium, N.A., Table II, read-out: minimum inhibitory concentration.
The mark [3] stands for this setting: 18 h, read-out: minimum inhibitory concentration.
Setting [4] is: A22, 18 h, agar medium, N.A., Table II, read-out: minimum inhibitory concentration.
Where [5] appears, read: read-out: minimum inhibitory concentration.
The mark [6] stands for this setting: N.A. (nutrient agar, pH 6.8), 37° C., 18 hours, Table I, read-out: minimum inhibitory concentration (M.I.C.).
Where [7] appears, read: T.S.A. (trypticase soya medium, pH 7.3), 37° C., 18 hours, read-out: minimum inhibitory concentration (M.I.C.).
The mark [8] stands for this setting: 18 h, pH 6.8, read-out: minimum inhibitory concentration (M.I.C.).

For the compound `CCCN1CCN(c2ncc3c(=O)c(C(=O)O)cn(CC)c3n2)CC1` [XIII, 2-(4'-Propyl-piperazino)-5-oxo-8-ethyl-5,8-dihydro-pyrido(2,3-d)pyrimidine-6-carboxylic acid], the MIC with Staphylococcus 209 P (setting [1]) was determined as 6.2 µg/mL (≈ 18 µM); with Streptococcus (setting [2]), 6.2 µg/mL (≈ 18 µM); with B. subtilis (setting [2]), 3.1 µg/mL (≈ 8.98 µM); in the experiment with Bord. bronchiseptica (setting [3]), 12.5 µg/mL (≈ 36.2 µM); in the experiment on B. pyocyaneus A22 (setting [4]), 100 µg/mL (≈ 290 µM); with Esch. Coli 95 (setting [2]), 50 µg/mL (≈ 145 µM). The MIC with Klebs. pneumoniae (setting [2]) was determined as 1.6 µg/mL (≈ 4.63 µM); with Salm. typhi (setting [5]) it was 12.5 µg/mL (≈ 36.2 µM); in the experiment with Sh. sonnei (setting [2]), 1.6 µg/mL (≈ 4.63 µM); with Pr. vulgaris (setting [2]) it was 6.2 µg/mL (≈ 18 µM); with Pr. mirabilis (setting [3]), 12.5 µg/mL (≈ 36.2 µM); in the experiment with Pr. morganii (setting [2]), 6.2 µg/mL (≈ 18 µM).
As for `Cn1cc(C(=O)O)c(=O)c2cnc(N3CCN(CCO)CC3)nc21` [Example XI, 2-(4'-β-Hydroxyethyl-piperazino)-5-oxo-8-methyl-5,8-dihydropyrido(2,3-d)pyrimidine-6-carboxylic acid], the MIC in the experiment with Staphylococcus 209 P (Staphylococcus, N.A. (nutrient agar, pH 6.8), 37° C., 18 hours, Table I, read-out: minimum inhibitory concentration (M.I.C.)) was 25 µg/mL (≈ 75 µM); in the experiment on Staphylococcus 209 P (Staphylococcus, T.S.A. (trypticase soya medium, pH 7.3), 37° C., 18 hours, read-out: minimum inhibitory concentration (M.I.C.)) it was greater than 100 µg/mL; in the experiment with Streptococcus (setting [6]), 25 µg/mL (≈ 75 µM); with Streptococcus (setting [7]), greater than 100 µg/mL; in the experiment with B. subtilis (setting [8]) it was 12.5 µg/mL (≈ 37.5 µM); in the experiment with B. subtilis (setting [7]) it was 100 µg/mL (≈ 300 µM). The MIC is 12.5 µg/mL (≈ 37.5 µM) in the experiment with Bord. bronchiseptica (setting [8]); 100 µg/mL (≈ 300 µM) with Bord. bronchiseptica (setting [7]); 100 µg/mL (≈ 300 µM) in the experiment with B. pyocyaneus A22 (A22, N.A. (nutrient agar, pH 6.8), 37° C., 18 hours, Table I, read-out: minimum inhibitory concentration (M.I.C.)); greater than 100 µg/mL with B. pyocyaneus A22 (A22, T.S.A. (trypticase soya medium, pH 7.3), 37° C., 18 hours, read-out: minimum inhibitory concentration (M.I.C.)); 100 µg/mL (≈ 300 µM) against B. pyocyaneus TUR (N.A. (nutrient agar, pH 6.8), Table I); greater than 100 µg/mL with B. pyocyaneus TUR (T.S.A. (trypticase soya medium, pH 7.3), read-out: minimum inhibitory concentration (M.I.C.)). Besides, the MIC in the experiment with Esch. Coli 95 (setting [6]) came out at 1.6 µg/mL (≈ 4.8 µM); in the experiment on Esch. Coli 95 (setting [7]), 25 µg/mL (≈ 75 µM); in the experiment with Klebs. pneumoniae (18 h, pH 7.3, read-out: minimum inhibitory concentration (M.I.C.)), 12.5 µg/mL (≈ 37.5 µM); with Klebs. pneumoniae (setting [6]), 3.1 µg/mL (≈ 9.3 µM); in the experiment with Salm. typhi (pH 6.8, read-out: minimum inhibitory concentration (M.I.C.)) it was 6.2 µg/mL (≈ 18.6 µM); in the experiment with Salm. typhi (pH 7.3, read-out: minimum inhibitory concentration (M.I.C.)) it was 50 µg/mL (≈ 150 µM). Moreover, the MIC amounted to 1.6 µg/mL (≈ 4.8 µM) in the experiment with Sh. sonnei (setting [6]); 12.5 µg/mL (≈ 37.5 µM) in the experiment on Sh. sonnei (setting [7]); 25 µg/mL (≈ 75 µM) in the experiment on Pr. vulgaris (setting [6]); 50 µg/mL (≈ 150 µM) in the experiment on Pr. vulgaris (setting [7]); 6.2 µg/mL (≈ 18.6 µM) in the experiment with Pr. mirabilis (setting [6]); 25 µg/mL (≈ 75 µM) in the experiment with Pr. mirabilis (setting [7]). For the same compound, the MIC in the experiment with Pr. morganii (setting [6]) is 3.1 µg/mL (≈ 9.3 µM); in the experiment with Pr. morganii (setting [7]), 25 µg/mL (≈ 75 µM).
As to `CCN1CCN(c2ncc3c(=O)c(C(=O)O)cn(CC)c3n2)CC1` [Example XII, 2-(4'-Ethyl-piperazino)-5-oxo-8-ethyl-5,8-dihydro-pyrido(2,3-d)pyrimidine-6-carboxylic acid], the MIC in the experiment on Staphylococcus 209 P (setting [1]) was 1.6 µg/mL (≈ 4.83 µM); with Streptococcus (setting [2]) it was 3.1 µg/mL (≈ 9.35 µM); with B. subtilis (setting [2]), 100 µg/mL (≈ 302 µM); in the experiment with Bord. bronchiseptica (setting [2]) it was 100 µg/mL (≈ 302 µM); with B. pyocyaneus A22 (setting [4]), 100 µg/mL (≈ 302 µM); in the experiment with Esch. Coli 95 (setting [2]), 0.8 µg/mL (≈ 2.41 µM). The MIC was 0.4 µg/mL (≈ 1.21 µM) with Klebs. pneumoniae (setting [2]); 0.8 µg/mL (≈ 2.41 µM) with Salm. typhi (setting [5]); 0.8 µg/mL (≈ 2.41 µM) in the experiment on Sh. sonnei (setting [2]); 0.8 µg/mL (≈ 2.41 µM) with Pr. vulgaris (setting [2]); 6.2 µg/mL (≈ 18.7 µM) in the experiment on Pr. mirabilis (setting [2]); 0.8 µg/mL (≈ 2.41 µM) with Pr. morganii (setting [2]).
On to `C=CCN1CCN(c2ncc3c(=O)c(C(=O)O)cn(CC)c3n2)CC1` [XIV, 2-(4'-Allyl-piperazino)-5-oxo-8-ethyl-5,8-dihydro-pyrido(2,3-d)pyrimidine-6-carboxylic acid], for which the MIC in the experiment on Staphylococcus 209 P (setting [1]) amounted to 3.1 µg/mL (≈ 9.03 µM); with Streptococcus (setting [2]), 1.6 µg/mL (≈ 4.66 µM); in the experiment with B. subtilis (setting [2]), 3.1 µg/mL (≈ 9.03 µM); in the experiment with Bord. bronchiseptica (setting [2]), 3.1 µg/mL (≈ 9.03 µM); with B. pyocyaneus A22 (setting [4]) it was 25 µg/mL (≈ 72.8 µM); in the experiment on Esch. Coli 95 (setting [2]), 50 µg/mL (≈ 146 µM). For the same compound, the MIC in the experiment with Klebs. pneumoniae (setting [2]) was determined as 0.4 µg/mL (≈ 1.16 µM); with Salm. typhi (setting [5]) it was 3.1 µg/mL (≈ 9.03 µM); in the experiment on Sh. sonnei (setting [2]), 0.8 µg/mL (≈ 2.33 µM); in the experiment with Pr. vulgaris (setting [2]), 3.1 µg/mL (≈ 9.03 µM); with Pr. mirabilis (setting [2]), 6.2 µg/mL (≈ 18.1 µM); in the experiment on Pr. morganii (setting [2]) it was 1.6 µg/mL (≈ 4.66 µM).
Regarding `CCn1cc(C(=O)O)c(=O)c2cnc(N3CCN(Cc4ccc(OC)cc4)CC3)nc21` [XVI, 2-(4'-p-Methoxybenzyl-piperazino)-5-oxo-8-ethyl-5,8-dihydro-pyrido(2,3-d)pyrimidine-6-carboxylic acid], the MIC turned out to be 0.4 µg/mL (≈ 0.945 µM) with Staphylococcus 209 P (setting [1]); 0.8 µg/mL (≈ 1.89 µM) with Streptococcus (setting [2]); 50 µg/mL (≈ 118 µM) in the experiment with B. subtilis (setting [2]); 12.5 µg/mL (≈ 29.5 µM) in the experiment on Bord. bronchiseptica (setting [2]); 12.5 µg/mL (≈ 29.5 µM) in the experiment on B. pyocyaneus A22 (setting [4]); 3.1 µg/mL (≈ 7.32 µM) with Esch. Coli 95 (setting [2]). In addition, the MIC in the experiment on Klebs. pneumoniae (setting [2]) was 0.2 µg/mL (≈ 0.472 µM); with Salm. typhi (setting [5]), 1.6 µg/mL (≈ 3.78 µM); in the experiment on Sh. sonnei (setting [2]) it was 0.8 µg/mL (≈ 1.89 µM); in the experiment with Pr. vulgaris (setting [2]), 6.2 µg/mL (≈ 14.6 µM); in the experiment with Pr. mirabilis (setting [2]), 12.5 µg/mL (≈ 29.5 µM); in the experiment with Pr. morganii (setting [2]), 1.6 µg/mL (≈ 3.78 µM).
On to `CCn1cc(C(=O)O)c(=O)c2cnc(N3CCN(Cc4ccc(Cl)cc4)CC3)nc21` [XV, 2-(4'-p-Chlorobenzyl-piperazino)-5-oxo-8-ethyl-5,8-dihydro-pyrido(2,3-d)pyrimidine-6-carboxylic acid], for which the MIC in the experiment with Staphylococcus 209 P (setting [1]) worked out at 0.8 µg/mL (≈ 1.87 µM); in the experiment on Streptococcus (setting [2]), 1.6 µg/mL (≈ 3.74 µM); in the experiment with B. subtilis (setting [2]), 1.6 µg/mL (≈ 3.74 µM); in the experiment on Bord. bronchiseptica (setting [2]), 3.1 µg/mL (≈ 7.24 µM); with B. pyocyaneus A22 (setting [4]) it was 50 µg/mL (≈ 117 µM); in the experiment with Esch. Coli 95 (setting [2]), 100 µg/mL (≈ 234 µM). Also, the MIC with Klebs. pneumoniae (setting [2]) was determined as 0.8 µg/mL (≈ 1.87 µM); in the experiment on Salm. typhi (setting [5]) it was 12.5 µg/mL (≈ 29.2 µM); with Sh. sonnei (setting [2]) it was 1.6 µg/mL (≈ 3.74 µM); in the experiment with Pr. vulgaris (setting [3]), 12.5 µg/mL (≈ 29.2 µM); in the experiment with Pr. mirabilis (setting [3]) it was 12.5 µg/mL (≈ 29.2 µM); in the experiment on Pr. morganii (setting [2]) it was 6.2 µg/mL (≈ 14.5 µM).
